# Measurements: US11491120B2, “Pharmacological prophylactics against stress-induced affective disorders in females” (The Trustees of Columbia University in the City of New York, priority 2017, dated 2022)
# Entries after “also recorded” stand apart in the source; their conditions may differ.
# Test system: female 129S6/SvEv mice
# Assay: Contextual fear conditioning (CFC), 3-shock, freezing in training and context re-exposure
# Conditions: for Freezing during 3-shock CFC training vs saline: 2.5, 10, or 30 mg/kg, 1 week before CFC; for Freezing during CFC re-exposure vs saline: vehicle condition; for Freezing during re-exposure to the CFC training context vs saline: single i.p. injection 1 week before 3-shock CFC, all doses; for Attenuation of learned fear: single injection 1 week before stressor
# [1] = female mice, listed as (R, S)-ketamine
# [2] = Contextual Fear Conditioning Re-exposure, Dunnett test Sal vs. drug (2.5), 1 week prophylactic drug
# [3] = Contextual Fear Conditioning Re-exposure, Dunnett test Sal vs. drug (10), 1 week prophylactic drug
# [4] = Contextual Fear Conditioning Re-exposure, Dunnett test Sal vs. drug (30), 1 week prophylactic drug
# [5] = Contextual Fear Conditioning Training, Dunnett test Sal vs. drug (2.5), 1 week prophylactic drug
# [6] = Contextual Fear Conditioning Training, Dunnett test Sal vs. drug (10), 1 week prophylactic drug
# [7] = Contextual Fear Conditioning Training, Dunnett test Sal vs. drug (30), 1 week prophylactic drug
# [8] = Ovariectomized cohort, 1 week prophylactic drug, Contextual Fear Conditioning Re-exposure, FIG. 10B, Sham mice, K (10), (2R,6R)-HNK (0.025)
# [9] = Ovariectomized cohort, 1 week prophylactic drug, Contextual Fear Conditioning Re-exposure, FIG. 10C, Sham mice, K (10), (2R,6R)-HNK (0.025)
# [10] = Ovariectomized, E2/P4 replacement, 1 week prophylactic drug, Contextual Fear Conditioning Re-exposure, FIG. 10E, Vehicle (hormone) mice, K (10), (2R,6R)-HNK (0.025)
# [11] = Ovariectomized, E2/P4 replacement, 1 week prophylactic drug, Contextual Fear Conditioning Re-exposure, FIG. 10F, Vehicle (hormone) mice, K (10), (2R,6R)-HNK (0.025)
# [12] = Ovariectomized, E2/P4 replacement, 1 week prophylactic drug, Contextual Fear Conditioning Training, FIG. 10D, Vehicle vs E2/P4, same drug, K (10), (2R,6R)-HNK (0.025)
# [13] = Sal vs. K (2.5), Fisher's PLSD, 3 day prophylactic drug/Contextual Fear Conditioning Training
# [14] = Sal vs. K (10), Fisher's PLSD, 1 week prophylactic drug, learned helplessness stress, Contextual Fear Conditioning Re-exposure
# [15] = Sal vs. K (10), Fisher's PLSD, 3 day prophylactic drug/Contextual Fear Conditioning Training
# [16] = Sal vs. K (10), Fisher's PLSD, Stress, antidepressant drug/Contextual Fear Conditioning Training
smiles,measurement,setting,value
"CNC1(c2ccccc2Cl)CCCCC1=O (racemic) [(R,S)-ketamine, (RS)-2-(2-chlorophenyl)-2-(methylamino)cyclohexanone]","p, Sal vs. drug, Dunnett test: Freezing (Average), Contextual Fear Conditioning Re-exposure","2.5 mg/kg, 1 week prophylactic drug",0.7546
same,"p, Sal vs. drug, Dunnett test: Freezing (Average), Contextual Fear Conditioning Re-exposure","10 mg/kg, 1 week prophylactic drug",0.8986
same,"p, Sal vs. drug, Dunnett test: Freezing (Average), Contextual Fear Conditioning Re-exposure","30 mg/kg, 1 week prophylactic drug",0.8647
same,Freezing during 3-shock CFC training vs saline,female mice,did not alter freezing
same,Freezing during 3-shock CFC training vs saline,[1],did not alter fear encoding
same,Freezing during CFC training vs saline,"2.5 and 10 mg/kg, 3 days before CFC, female mice",significantly increased freezing compared to saline
same,Freezing during CFC training vs saline,"2.5 and 10 mg/kg, 3 days before CFC, female mice; listed as R,S)-ketamine",significantly increased freezing during the last minute
same,Freezing during context re-exposure vs saline,"3 days before CFC, female mice",do not affect freezing during re-exposure
same,"p, Freezing (min 1-5)",[2],0.7546
same,"p, Freezing (min 2)",[2],0.9996
same,"p, Freezing (min 3)",[2],0.6267
same,"p, Freezing (min 4)",[2],0.1951
same,"p, Freezing (min 5)",[2],0.4912
same,"p, Freezing (min 1-5)",[3],0.8986
same,"p, Freezing (min 2)",[3],0.9240
same,"p, Freezing (min 3)",[3],0.9864
same,"p, Freezing (min 4)",[3],0.6904
same,"p, Freezing (min 5)",[3],0.6667
same,"p, Freezing (min 1-5)",[4],0.8647
same,"p, Freezing (min 2)",[4],0.6079
same,"p, Freezing (min 3)",[4],0.8139
same,"p, Freezing (min 4)",[4],0.9885
same,"p, Freezing (min 5)",[4],0.9996
same,"p, Freezing (min 1-5)",[5],0.5398
same,"p, Freezing (min 4)",[5],0.9957
same,"p, Freezing (min 5)",[5],0.2720
same,"p, Freezing (min 1-5)",[6],>0.9999
same,"p, Freezing (min 4)",[6],0.9996
same,"p, Freezing (min 5)",[6],0.9996
same,"p, Freezing (min 1-5)",[7],0.9998
same,"p, Freezing (min 4)",[7],>0.9999
same,"p, Freezing (min 5)",[7],0.9997
same,"p, Freezing (min 1-5), Fisher's PLSD, OVX Sal vs OVX drug","Ovariectomized cohort, 1 week prophylactic drug, Contextual Fear Conditioning Re-exposure, FIG. 10B, OVX mice, K (10), (2R,6R)-HNK (0.025)",0.1532
same,"* (significance), Freezing (min 1-5), Fisher's PLSD, Sham Sal vs Sham drug",[8],* (* p<0.05)
same,"p, Freezing (min 1-5), Fisher's PLSD, Sham Sal vs Sham drug",[8],0.0290
same,"p, Freezing (min 1-5), Fisher's PLSD, Sham drug vs OVX drug","Ovariectomized cohort, 1 week prophylactic drug, Contextual Fear Conditioning Re-exposure, FIG. 10B, Sham vs OVX, same drug, K (10), (2R,6R)-HNK (0.025)",0.7813
same,"p, Freezing Average (min 1-5), Fisher's PLSD, OVX Sal vs OVX drug","Ovariectomized cohort, 1 week prophylactic drug, Contextual Fear Conditioning Re-exposure, FIG. 10C, OVX mice, K (10), (2R,6R)-HNK (0.025)",0.1532
same,"* (significance), Freezing Average (min 1-5), Fisher's PLSD, Sham Sal vs Sham drug",[9],* (* p<0.05)
same,"p, Freezing Average (min 1-5), Fisher's PLSD, Sham Sal vs Sham drug",[9],0.0290
same,"p, Freezing Average (min 1-5), Fisher's PLSD, Sham drug vs OVX drug","Ovariectomized cohort, 1 week prophylactic drug, Contextual Fear Conditioning Re-exposure, FIG. 10C, Sham vs OVX, same drug, K (10), (2R,6R)-HNK (0.025)",0.7813
same,"p, Freezing (min 1-5), Fisher's PLSD, E2/P4 Sal vs E2/P4 drug","Ovariectomized, E2/P4 replacement, 1 week prophylactic drug, Contextual Fear Conditioning Re-exposure, FIG. 10E, E2/P4 mice, K (10), (2R,6R)-HNK (0.025)",0.7946
same,"* (significance), Freezing (min 1-5), Fisher's PLSD, Vehicle Sal vs Vehicle drug",[10],** (** p<0.01)
same,"p, Freezing (min 1-5), Fisher's PLSD, Vehicle Sal vs Vehicle drug",[10],0.0077
same,"p, Freezing (min 1-5), Fisher's PLSD, Vehicle drug vs E2/P4 drug","Ovariectomized, E2/P4 replacement, 1 week prophylactic drug, Contextual Fear Conditioning Re-exposure, FIG. 10E, Vehicle vs E2/P4, same drug, K (10), (2R,6R)-HNK (0.025)",0.2095
same,"p, Freezing Average (min 1-5), Fisher's PLSD, E2/P4 Sal vs E2/P4 drug","Ovariectomized, E2/P4 replacement, 1 week prophylactic drug, Contextual Fear Conditioning Re-exposure, FIG. 10F, E2/P4 mice, K (10), (2R,6R)-HNK (0.025)",0.7946
same,"* (significance), Freezing Average (min 1-5), Fisher's PLSD, Vehicle Sal vs Vehicle drug",[11],** (** p<0.01)
same,"p, Freezing Average (min 1-5), Fisher's PLSD, Vehicle Sal vs Vehicle drug",[11],0.0077
same,"p, Freezing Average (min 1-5), Fisher's PLSD, Vehicle drug vs E2/P4 drug","Ovariectomized, E2/P4 replacement, 1 week prophylactic drug, Contextual Fear Conditioning Re-exposure, FIG. 10F, Vehicle vs E2/P4, same drug, K (10), (2R,6R)-HNK (0.025)",0.2095
same,"p, Freezing (min 1-5), Fisher's PLSD, E2/P4 Sal vs E2/P4 drug","Ovariectomized, E2/P4 replacement, 1 week prophylactic drug, Contextual Fear Conditioning Training, FIG. 10D, E2/P4 mice, K (10), (2R,6R)-HNK (0.025)",0.5725
same,"p, Freezing (min 1-5), Fisher's PLSD, Vehicle Sal vs Vehicle drug","Ovariectomized, E2/P4 replacement, 1 week prophylactic drug, Contextual Fear Conditioning Training, FIG. 10D, Vehicle (hormone) mice, K (10), (2R,6R)-HNK (0.025)",0.1466
same,"* (significance), Freezing (min 1-5), Fisher's PLSD, Vehicle drug vs E2/P4 drug",[12],** (** p<0.01)
same,"p, Freezing (min 1-5), Fisher's PLSD, Vehicle drug vs E2/P4 drug",[12],0.0004
same,"*, Freezing (min 5)",[13],* (* p<0.05)
same,"p, Freezing (min 5)",[13],0.0143
same,"*, Freezing (min 1)",[14],* (* p<0.05)
same,"p, Freezing (min 1)",[14],0.0166
same,"*, Freezing (min 5)",[15],** (** p<0.01)
same,"p, Freezing (min 5)",[15],0.0078
same,"p, Freezing (min 1-5)",[16],0.1932
same,"p, Freezing (min 5)",[16],0.2639
same,"p, Freezing (min 5)","Sal vs. K (30), Fisher's PLSD, 3 day prophylactic drug/Contextual Fear Conditioning Training",0.0606
same,"Freezing during CFC Training, E2/P4+drug vs vehicle+drug","ovariectomized mice, hormone replacement",froze significantly more
same,Freezing during CFC re-exposure vs saline,ovariectomized mice,displayed altered freezing
same,Freezing during CFC re-exposure vs saline,"ovariectomized mice, listed as (R, S)-ketamine",froze significantly less than saline mice
same,Freezing during re-exposure to the CFC training context vs saline,[1],did not alter fear encoding or fear retrieval; also recorded: did not alter overall freezing
same,Freezing during re-exposure to the CFC training context vs saline,"female mice, listed as Racemic ketamine",do not significantly alter freezing
same,Attenuation of learned fear,female mice,do not attenuate learned fear
same,Attenuation of learned fear,[1],do not attenuate learned fear; also recorded: do not alter learned fear
